Measurements reported in the supplement of paper PMC11061612.

Key:
Test in all cases: Bliss excess, mean over the matrix (fraction); higher = more synergy
A101D (Melanoma) = test system: A101D (Melanoma)
Procedure, shortened: (§1)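 After 24 hours at 37°C and 5% CO2 in 1536-well plates, cells in DMEM/F12 or RPMI plus 10% FBS received two-drug dose matrices for 72 hours. Viability came from CellTiter-Glo 2.0 luminescence and was scaled as inhibition, anchored at 0 by vehicle wells and at 1 by blank wells. Combination Emax is taken as the second-highest inhibition in the matrix, and Bliss excess as the observed combination effect less EA + EB − EA·EB, with EA and EB the single-agent effects.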

[1] = test system: A253 (Head and Neck Carcinoma)
Procedure, shortened: as §1

[2] = test system: CGTH-W-1 (Thyroid Gland Carcinoma)
Procedure, shortened: as §1

COLO-792 (Melanoma) = test system: COLO-792 (Melanoma)
Procedure, shortened: as §1

[3] = test system: ESO26 (Esophageal Adenocarcinoma)
Procedure, shortened: as §1

EW-7 (Ewing's Sarcoma) = test system: EW-7 (Ewing's Sarcoma)
Procedure, shortened: as §1

[4] = test system: G-402 (Other Solid Carcinomas)
Procedure, shortened: as §1

HCC70 (Breast Carcinoma) = test system: HCC70 (Breast Carcinoma)
Procedure, shortened: as §1

IM-9 (Non-Cancerous) = test system: IM-9 (Non-Cancerous)
Procedure, shortened: as §1

[5] = test system: JHU-022 (Oral Cavity Carcinoma)
Procedure, shortened: as §1

KP-N-YN (Neuroblastoma) = test system: KP-N-YN (Neuroblastoma)
Procedure, shortened: as §1

[6] = test system: LU-165 (Small Cell Lung Carcinoma)
Procedure, shortened: as §1

[7] = test system: NCI-H1651 (Lung Adenocarcinoma)
Procedure, shortened: as §1

[8] = test system: NCI-H2087 (Lung Adenocarcinoma)
Procedure, shortened: as §1

[9] = test system: SK-HEP-1 (Hepatocellular Carcinoma)
Procedure, shortened: as §1

5637 (Bladder Carcinoma) = test system: 5637 (Bladder Carcinoma)
Procedure, shortened: as §1

[10] = test system: CA46 (Burkitt's Lymphoma)
Procedure, shortened: as §1

[11] = test system: CAL-27 (Oral Cavity Carcinoma)
Procedure, shortened: as §1

[12] = test system: HCC1428 (Breast Carcinoma)
Procedure, shortened: as §1

RH-41 (Rhabdomyosarcoma) = test system: RH-41 (Rhabdomyosarcoma)
Procedure, shortened: as §1

SMILES	Bliss excess (A101D (Melanoma))	Bliss excess [1]	Bliss excess [2]	Bliss excess (COLO-792 (Melanoma))	Bliss excess [3]	Bliss excess (EW-7 (Ewing's Sarcoma))	Bliss excess [4]	Bliss excess (HCC70 (Breast Carcinoma))	Bliss excess (IM-9 (Non-Cancerous))	Bliss excess [5]	Bliss excess (KP-N-YN (Neuroblastoma))	Bliss excess [6]	Bliss excess [7]	Bliss excess [8]	Bliss excess [9]	Bliss excess (5637 (Bladder Carcinoma))	Bliss excess [10]	Bliss excess [11]	Bliss excess [12]	Bliss excess (RH-41 (Rhabdomyosarcoma))
CCc1c2c(nc3ccc(O)cc13)-c1cc3c(c(=O)n1C2)COC(=O)[C@]3(O)CC [SN-38] + O=C(c1cc(Cc2n[nH]c(=O)c3ccccc23)ccc1F)N1CCN(C(=O)C2CC2)CC1 [Olaparib] (first compound max 0.3 µM, 7x7, partner max 10 µM)	0.114	0.0223	0.0526	0.0356	0.0237	0.0538	0.0614	0.0458	0.0871	0.0415	-0.0038	0.0203	0.0252	0.017	0.0077	–	–	–	–	–
C=CCn1c(=O)c2cnc(Nc3ccc(N4CCN(C)CC4)cc3)nc2n1-c1cccc(C(C)(C)O)n1 [AZD1775] + C1CN(CCC1(C(=O)N[C@@H](CCO)C2=CC=C(C=C2)Cl)N)C3=NC=NC4=C3C=CN4 [Capivasertib] (first compound max 3 µM, partner max 3 µM)	0.0152	0.0248	-0.0278	0.0596	-0.0424	0.0149	-0.0346	-0.0235	-0.0157	-0.022	–	-0.117	-0.0367	-0.0287	0.0958	0.0064	-0.0101	-0.0197	-0.0203	-0.0387
Cc1c2c(nn1C)CSCc1cc(n(C)n1)CSc1cc(c3ccccc3c1)OCCCc1c(C(=O)O)n(C)c3c-2c(Cl)ccc13 [AZD5991] + C[C@@H](Nc1cc(F)cc(F)c1)c1cc(C(=O)N(C)C)cc2c(=O)cc(N3CCOCC3)oc12 [AZD8186] (first compound max 1 µM, 7x7, partner max 3 µM)	-0.0318	-0.0396	-0.0348	0.0218	-0.0171	-0.0178	–	0.0937	-0.0376	-0.0211	-0.0498	-0.0238	-0.0293	-0.0168	0.0175	-0.036	-0.0611	0.0034	-0.009	-0.0114
CN(CCO)CC[C@H](CSc1ccccc1)Nc1ccc(S(=O)(=O)NC(=O)c2ccc(N3CCC([C@@H](O)c4ccccc4-c4ccc(Cl)cc4)CC3)cc2)cc1S(=O)(=O)C(F)(F)F [AZD4320] + CN(C)CCCOc1ccc(-c2ccc3ncc4c(c3c2)n(C2CCOCC2)c(=O)n4C)cn1 [AZD0156] (first compound max 1 µM, 7x7, partner max 1 µM)	-0.0298	0.0114	-0.0346	–	-0.025	0.0524	-0.0458	-0.0321	-0.0621	-0.0584	-0.0064	-0.025	-0.026	-0.0496	0.0146	-0.0311	0.0092	-0.0136	0.0307	-0.0265
C[C@@H]1COCCN1c1cc(C2([S@](C)(=N)=O)CC2)nc(-c2ccnc3[nH]ccc23)n1 [AZD6738] + C1CC(C1)(C(=O)[O-])C(=O)[O-].N.N.[Pt+2] [Carboplatin] (first compound max 10 µM, 7x7, partner max 10 µM)	–	–	-0.0098	–	–	-0.0315	–	-0.0305	0.0081	-0.0325	-0.0177	-0.0517	-0.0327	-0.0344	-0.0469	–	–	–	–	–
CC1(C)CCC(CN2CCN(c3ccc(C(=O)NS(=O)(=O)c4ccc(NCC5CCOCC5)c([N+](=O)[O-])c4)c(Oc4cnc5[nH]ccc5c4)c3)CC2)=C(c2ccc(Cl)cc2)C1 [Venetoclax] + CS(=O)(=O)CCNCc1ccc(-c2ccc3ncnc(Nc4ccc(OCc5cccc(F)c5)c(Cl)c4)c3c2)o1 [Lapatinib] (first compound max 1 µM, 7x7, partner max 10 µM)	–	–	-0.0396	–	–	0.0078	–	-0.0318	0.0902	-0.0551	-0.0157	-0.0289	-0.0182	-0.0431	0.0013	–	–	–	–	–
C[C@@H](Nc1cc(F)cc(F)c1)c1cc(C(=O)N(C)C)cc2c(=O)cc(N3CCOCC3)oc12 [AZD8186] + C1CN(CCC1(C(=O)N[C@@H](CCO)C2=CC=C(C=C2)Cl)N)C3=NC=NC4=C3C=CN4 [AZD5363] (first compound max 10 µM, 7x7, partner max 10 µM)	–	–	-0.0136	–	–	-0.03	–	-0.0152	0.0493	-0.0909	-0.0765	-0.086	-0.0302	-0.0043	-0.0291	–	–	–	–	–
O=C(c1cc(Cc2n[nH]c(=O)c3ccccc23)ccc1F)N1CCN(C(=O)C2CC2)CC1 [Olaparib] + CN(CC[C@H](CSC1=CC=CC=C1)NC2=C(C=C(C=C2)S(=O)(=O)NC(=O)C3=CC=C(C=C3)N4CCC(CC4)[C@H](C5=CC=CC=C5C6=CC=C(C=C6)Cl)O)S(=O)(=O)C(F)(F)F)CCO [AZD4320] (first compound max 10 µM, 7x7, partner max 1 µM)	–	–	-0.0482	–	–	0.129	–	0.0129	0.141	-0.0411	0.0322	-0.008	0.0253	-0.0215	0.0491	–	–	–	–	–
O=C(c1cc(Cc2n[nH]c(=O)c3ccccc23)ccc1F)N1CCN(C(=O)C2CC2)CC1 [Olaparib] + CC1(C)CCC(CN2CCN(c3ccc(C(=O)NS(=O)(=O)c4ccc(NCC5CCOCC5)c([N+](=O)[O-])c4)c(Oc4cnc5[nH]ccc5c4)c3)CC2)=C(c2ccc(Cl)cc2)C1 [Venetoclax] (first compound max 10 µM, 7x7, partner max 1 µM)	–	–	-0.0433	–	–	0.0125	–	-0.0472	0.112	-0.0455	0.186	-0.0248	0.001	-0.0543	-0.0619	–	–	–	–	–
CS(=O)(=O)CCNCc1ccc(-c2ccc3ncnc(Nc4ccc(OCc5cccc(F)c5)c(Cl)c4)c3c2)o1 [Lapatinib] + NC1(c2ccc(-c3nc4ccn5c(=O)[nH]nc5c4cc3-c3ccccc3)cc2)CCC1 [MK-2206] (first compound max 10 µM, 7x7, partner max 10 µM)	-0.0638	–	0.0174	–	–	0.0239	–	0.024	0.0096	-0.0585	0.0876	-0.0522	-0.0008	-0.0221	-0.0936	–	–	–	0.0023	–
C[C@@H](Nc1cc(F)cc(F)c1)c1cc(C(=O)N(C)C)cc2c(=O)cc(N3CCOCC3)oc12 [AZD8186] + CC(=O)c1c(C)c2cnc(Nc3ccc(N4CCNCC4)cn3)nc2n(C2CCCC2)c1=O [Palbociclib] (first compound max 10 µM, 7x7, partner max 10 µM)	–	–	0.0397	–	–	0.045	–	0.0225	0.112	-0.0376	0.0108	-0.0313	-0.0192	-0.0232	-0.0155	–	–	–	–	–
Cc1c2c(nn1C)CSCc1cc(n(C)n1)CSc1cc(c3ccccc3c1)OCCCc1c(C(=O)O)n(C)c3c-2c(Cl)ccc13 [AZD5991] + CCN(CCO)CCCOc1ccc2c(Nc3cc(CC(=O)Nc4cccc(F)c4)[nH]n3)ncnc2c1 [AZD2811] (first compound max 1 µM, 7x7, partner max 1 µM)	-0.0169	0.0542	0.0439	-0.0095	–	0.198	0.0271	-0.0219	-0.0112	0.0039	0.0556	-0.025	-0.0386	-0.0144	0.0084	0.0103	0.0251	0.0403	0.0469	0.0183
CN(C)CCCOc1ccc(-c2ccc3ncc4c(c3c2)n(C2CCOCC2)c(=O)n4C)cn1 [AZD0156] + O=C(c1cc(Cc2n[nH]c(=O)c3ccccc23)ccc1F)N1CCN(C(=O)C2CC2)CC1 [Olaparib] (first compound max 3 µM, partner max 3 µM)	0.134	0.0536	0.0361	0.0844	-0.0039	0.119	0.0571	-0.0548	0.275	-0.0079	–	0.0093	0.132	-0.043	0.0576	0.138	0.0156	0.0602	0.0051	0.0128
CS(=O)(=O)CCNCc1ccc(-c2ccc3ncnc(Nc4ccc(OCc5cccc(F)c5)c(Cl)c4)c3c2)o1 [Lapatinib] + Cn1cnc2c(F)c(Nc3ccc(Br)cc3Cl)c(C(=O)NOCCO)cc21 [Selumetinib] (first compound max 10 µM, 7x7, partner max 10 µM)	–	–	-0.0291	–	–	0.0166	–	0.0408	-0.0826	-0.0636	-0.0666	-0.0543	-0.0355	-0.0455	-0.0163	–	–	–	–	–
Cc1c2c(nn1C)CSCc1cc(n(C)n1)CSc1cc(c3ccccc3c1)OCCCc1c(C(=O)O)n(C)c3c-2c(Cl)ccc13 [AZD5991] + CC(=O)O[C@H]1C(=O)[C@@]2(C)[C@H]([C@H](OC(=O)c3ccccc3)[C@]3(O)C[C@H](OC(=O)[C@H](O)[C@@H](NC(=O)c4ccccc4)c4ccccc4)C(C)=C1C3(C)C)[C@]1(OC(C)=O)CO[C@@H]1C[C@@H]2O [Paclitaxel] (first compound max 1 µM, 7x7, partner max 3 µM)	–	–	0.037	–	–	0.0625	–	0.0649	0.0008	0.0286	-0.0275	-0.0443	-0.0345	0.0128	-0.0587	–	–	–	–	–
O=C(c1cc(Cc2n[nH]c(=O)c3ccccc23)ccc1F)N1CCN(C(=O)C2CC2)CC1 [Olaparib] + COc1nnc2ccc(N3CCC(c4ccc(OCCN5CCN(C)C(=O)[C@H]5C)cc4)CC3)nn12 [AZD5153] (first compound max 10 µM, 7x7, partner max 1 µM)	–	–	-0.0247	–	–	0.0362	–	-0.0402	0.0107	-0.0676	-0.0142	-0.0305	-0.0044	-0.0304	0.0116	–	–	–	–	–
C[C@@H](Oc1cc(-c2cnn(C3CCNCC3)c2)cnc1N)c1c(Cl)ccc(F)c1Cl [Crizotinib] + CC1=C(C(=CC=C1)Cl)NC(=O)C2=CN=C(S2)NC3=CC(=NC(=N3)C)N4CCN(CC4)CCO [Dasatinib] (first compound max 10 µM, 7x7, partner max 2 µM)	–	–	0.0795	–	–	-0.0072	–	-0.0407	0.0001	-0.0186	-0.0895	-0.0337	-0.0149	-0.0254	-0.0098	–	–	–	–	–
